Results as given in patent US10563197B2, “Use of a combination of Dbait molecule and PARP inhibitors to treat cancer” (INSTITUT CURIE, priority 2015, dated 2020).

Legend:
SK28 Lsh CTL = assay: Cell survival, trypan blue counting; assay type: cell-based, human; conditions: 4.80 μM of AsiDNA and/or 0.1 μM of Ola; day 6 after treatment
HCT116 = assay: Cell survival, trypan blue counting; assay type: cell-based, human; conditions: 4.80 μM of AsiDNA and/or 0.1 μM of Ola; day 6 after treatment
Experimental: (§3) Cells were grown according to the supplier's instructions. Cell lines were maintained at 37° C. in a humidified atmosphere at 5% CO2.
(§4) AsiDNA or PARPi cytotoxicity was measured by relative survival and cell death quantification. Adherent cells were seeded in 24-well culture plates at appropriate densities and incubated 24 hours at 37° C. before AsiDNA and/or PARPi addition. Cells were harvested day 6aftertreatment, stained with 0.4% trypan blue (Sigma Aldrich, Saint-Louis, USA) and counted with a Burker chamber. Cell survival was calculated as ratio of living treated cells to living mock-treated cells. Cell death was calculated as the number of dead cells on the total number of counted cells. Additivity of the toxicity was calculated by the product of cell survivals to AsiDNA and cell survivals to PARPi.

[1] = test system: MD227 human breast cancer cell lines grafted in the fat pad; assay: In vivo test on tumor growth, breast cancer xenograft; conditions: DT01 2.5 mg intratumoral and 2.5 mg subcutaneous daily for 5 days; Olaparib 200 mg/kg/day per os, 5 daily sessions; or both
Experimental: Nude mice with xenografted MD227 human breast cancer cell lines grafted in the fat pad were treated by intratumoral administration of DT01 (5 mg/day) and Olaparib (200 mg/kg/day). Tumor growth was monitored (time zero: beginning of treatment). Eight to ten animals were treated per group (group 1: vehicle injection (grey line); group 2: DT01 (black dotted line); group 3: Olaparib (grey dotted line); group 4; DT01+ Olaparib (black line)). Treatment was administered 5 following days.
Human breast cancer xenograft tumors were obtained by injecting 4.10^6 tumor cells into the fat pad of adult female nude mice (Janvier, Le Genest Saint Isle, France). The animals were housed in the laboratory for at least 1 week before starting experiments. There were six animals per cage under controlled conditions of light and dark cycles (12 h: 12 h), relative humidity (55%), and temperature (21° C.). Food and tap water were available ad libitum. […] Mice were weighed every week and followed up for 280 days. For ethical reasons, the animals were sacrificed when tumors reached 1500 mm^3. The Local Committee on Ethics of Animal Experimentation approved all experiments.

BT20 = assay: Cell death and proliferation; assay type: cell-based, human; conditions: 0.1 μM Ola, 4.8 μM AsiDNA; sensitive = difference in % dead cells higher than two-fold
Experimental: (§1) Efficacy of Ola and AsiDNA was assessed by measuring cell death and proliferation in 12BC cell lines including 4BRCA-mutated cell lines (FIGS. 4A and B and FIG. 5). In addition, HeLa cells silenced for BRCA1 or BRCA2 genes were used as a control of BRCA mutation factor and 3 immortalized mammary cell lines (MCF10A, MCF12A and 184B5) as non-tumor controls. The concentration of the drugs (0.1 μM for Ola and 4.8 μM for AsiDNA) were chosen based on the 75-80% survival in the BC227 BRCA2^−/− mutant. […] Ola and AsiDNA treatments had no effect on the three control non-tumor cell lines.
(§2) Cells were grown according to the supplier's instructions.

HCC1143 = assay: Cell death and proliferation; assay type: cell-based, human; conditions: 0.1 μM Ola, 4.8 μM AsiDNA; sensitive = difference in % dead cells higher than two-fold
Experimental: as §1, §2

HCC70 = assay: Cell death and proliferation; assay type: cell-based, human; conditions: 0.1 μM Ola, 4.8 μM AsiDNA; sensitive = difference in % dead cells higher than two-fold
Experimental: as §1, §2

MCF7 = assay: Cell death and proliferation; assay type: cell-based, human; conditions: 0.1 μM Ola, 4.8 μM AsiDNA; sensitive = difference in % dead cells higher than two-fold
Experimental: as §1, §2

3 BC cell lines = assay: Combined treatment survival in BC cell lines (FIG. 6, 7, 12); assay type: cell-based, human; conditions: FIG. 7
Experimental: Efficacy of AsiDNA (4. 8 μM), olaparib (0, 0.1 and 1 μM) or both was monitored 6 days after treatment by cell counting after trypan blue labeling. (A) Percentage of living cells relative to non-treated condition (NT). (B) Percentage of dead cells. Data are expressed as mean+Sc.D. of at least 2 independent experiments. Dotted lines indicate the calculated cell survivals if additivity between AsiDNA and olaparib.
Efficacy of AsiDNA (4.8 μM), veliparib (0, 10 and 50 μM) or both was monitored 6 days after treatment by trypan blue staining. (A) Percentage of living cells relative to non-treated condition (NT). (B) Percentage of dead cells. Dotted lines indicate the calculated cell survivals if additivity between AsiDNA and veliparib.
The inventors monitored cell survival to combined treatment of 3 BC and 2 non-tumor cell lines with different sensitivities to Ola and AsiDNA alone (FIG. 6; Table 1). […] However, the combination remained more efficient or at least equal to the expected additive effect at all the tested doses. […] In contrast, the normal cells were insensitive to both, the combined and the single treatments with AsiDNA and Ola (FIG. 6; Table 1).

[2] = test system: mutants with one repair defect (PARP1, BRCA1, BRCA2, Ku70, DNA-PKcs); assay: Single treatments in isogenic pairs with DNA repair mutants; conditions: 4.80 μM AsiDNA or 0.1 μM Ola
Experimental: To determine if the efficacy of the combination of AsiDNA with Ola was not restricted to BC, the inventors analyzed the sensitivity of different cancer cell lines including glioblastoma, cervical cancer, colon cancer, blood cancer and melanoma.
as §3, §4

O=C(c1cc(Cc2n[nH]c(=O)c3ccccc23)ccc1F)N1CCN(C(=O)C2CC2)CC1 [Olaparib, 4-[(3-[(4-cyclopropylcarbonyl)piperazin-4-yl]carbonyl)-4-fluorophenyl]methyl(2H)-phthalazin-1-one]
Survival (%/NT) (SK28 Lsh CTL): 80.6 %/NT
Survival (%/NT) (HCT116): 82.9 %/NT
local skin toxicity or systemic toxicity [1]: No local skin toxicity or systemic toxicity
sensitivity to treatment (BT20): resistant to both treatments
sensitivity to treatment (HCC1143): sensitive only to AsiDNA
sensitivity to treatment (HCC70): resistant to both treatments
sensitivity to treatment (MCF7): resistant to both treatments
dose dependence of efficacy of single treatments (3 BC cell lines): dose dependent
cytotoxicity of single treatments to DNA repair mutants [2]: essentially restricted to the BRCA mutants
